# The supplement of paper PMC10307832
# Assays:
# Assay in all cases: relative viability (nuclei count vs DMSO), 5 days (fraction); higher = more cells survive
# [1] = compound: C1CC(C1)(C(=O)O)C(=O)O.[NH2-].[NH2-].[Pt+2] [Carboplatin] + CS(=O)(=O)CCNCc1ccc(-c2ccc3ncnc(Nc4ccc(OCc5cccc(F)c5)c(Cl)c4)c3c2)o1 [Lapatinib] (partner 2 µM)
# Procedure, shortened: (§1)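 Each reported value is a median over duplicate plates. It expresses relative viability: treated-well nuclei count divided by vehicle-well nuclei count. Lung cancer cell lines in 1536-well plates were dosed by pin tool a day after seeding, alone with one drug or with a fixed anchor-drug dose plus five library-drug doses (not always all listed) in √10 steps, and nuclei were counted after 5 days.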
# [2] = compound: C1CC(C1)(C(=O)O)C(=O)O.[NH2-].[NH2-].[Pt+2] [Carboplatin] + NC(=O)Nc1cc(-c2cccc(F)c2)sc1C(=O)N[C@H]1CCCNC1 [AZD7762] (partner 0.2 µM)
# Procedure, shortened: as §1
# [3] = compound: NS(=O)(=O)OC[C@@H]1C[C@@H](n2ccc3c(N[C@H]4CCc5ccccc54)ncnc32)C[C@@H]1O [MLN4924] + CC(=O)Nc1cccc(-n2c(=O)n(C3CC3)c(=O)c3c(Nc4ccc(I)cc4F)n(C)c(=O)c(C)c32)c1 [Trametinib] (partner 0.02 µM)
# Procedure, shortened: as §1
# [4] = compound: NS(=O)(=O)OC[C@@H]1C[C@@H](n2ccc3c(N[C@H]4CCc5ccccc54)ncnc32)C[C@@H]1O [MLN4924] + O=C(c1cc(Cc2n[nH]c(=O)c3ccccc23)ccc1F)N1CCN(C(=O)C2CC2)CC1 [Olaparib] (partner 8 µM)
# Procedure, shortened: as §1
Cell Line,relative viability ([1]; first compound 0.08 µM),relative viability ([1]; first compound 0.253 µM),relative viability ([1]; first compound 0.8 µM),relative viability ([1]; first compound 2.53 µM),relative viability ([1]; first compound 8 µM),relative viability ([2]; first compound 0.08 µM),relative viability ([2]; first compound 0.253 µM),relative viability ([2]; first compound 0.8 µM),relative viability ([2]; first compound 2.53 µM),relative viability ([2]; first compound 8 µM),relative viability ([3]; first compound 0.04 µM),relative viability ([3]; first compound 0.1265 µM),relative viability ([3]; first compound 0.4 µM),relative viability ([3]; first compound 1.265 µM),relative viability ([3]; first compound 4 µM),relative viability ([4]; first compound 0.04 µM),relative viability ([4]; first compound 0.1265 µM),relative viability ([4]; first compound 0.4 µM),relative viability ([4]; first compound 1.265 µM),relative viability ([4]; first compound 4 µM)
NCI-H838,1.05,1.1,1.04,0.951,1.04,1.09,0.957,0.837,0.869,0.758,0.438,0.331,0.172,0.0938,0.126,0.434,0.243,0.197,0.124,0.136
NCI-H1355,1.12,1.11,1.09,1.06,0.93,0.98,0.877,0.626,0.791,0.729,0.474,0.477,0.444,0.243,0.232,0.688,0.516,0.525,0.306,0.186
NCI-H1395,1.23,1.06,0.984,0.841,0.607,0.403,0.39,0.406,0.386,0.405,1.07,1.02,0.836,0.392,0.385,0.415,0.426,0.367,0.339,0.364
NCI-H1437,0.869,0.832,0.838,0.887,0.641,1.22,1.09,0.927,0.955,1.03,0.547,0.483,0.502,0.226,0.218,0.582,0.499,0.409,0.253,0.153
NCI-H1651,0.852,0.743,0.965,0.837,0.497,0.539,0.537,0.447,0.456,0.436,0.799,0.853,0.81,0.512,0.185,0.176,0.182,0.176,0.138,0.0847
NCI-H1666,0.662,0.665,0.578,0.498,0.468,0.973,0.916,0.811,0.779,0.831,0.762,0.601,0.615,0.429,0.51,0.774,0.691,0.657,0.468,0.388
NCI-H1734,1.01,1.07,1.06,1.01,0.833,0.575,0.558,0.558,0.46,0.419,0.705,0.715,0.181,0.123,0.126,0.652,0.547,0.128,0.108,0.107
NCI-H1755,1.06,1.1,1.11,1.09,0.995,0.445,0.477,0.491,0.465,0.419,0.813,0.749,0.801,0.348,0.215,0.859,0.544,0.491,0.254,0.171
NCI-H1792,1,1.02,0.941,0.817,0.8,0.924,0.669,0.606,0.457,0.352,0.376,0.441,0.566,0.433,0.238,0.452,0.37,0.384,0.33,0.104
NCI-H1793,0.941,0.49,0.485,0.628,0.833,0.667,0.457,0.393,0.334,0.58,0.417,0.426,0.508,0.376,0.294,0.833,0.964,0.991,0.297,0.194
NCI-H1915,0.906,1.03,0.976,0.999,0.577,0.64,0.706,0.679,0.647,0.39,0.346,0.39,0.403,0.261,0.167,0.314,0.22,0.221,0.142,0.129
NCI-H1944,0.783,0.978,0.833,0.919,0.586,0.616,0.5,0.584,0.559,0.354,0.388,0.353,0.329,0.193,0.186,0.405,0.296,0.304,0.162,0.139
NCI-H1975,0.877,0.993,0.838,0.826,0.884,0.868,0.746,0.679,0.742,0.691,0.344,0.544,0.44,0.38,0.312,0.706,0.948,0.829,0.498,0.213
NCI-H1993,0.834,0.843,0.909,0.791,0.853,0.973,0.899,0.864,0.871,0.695,0.63,0.425,0.388,0.415,0.356,0.776,0.481,0.652,0.422,0.426
NCI-H2085,0.8,0.897,0.787,0.748,0.815,1.02,1.01,0.973,0.995,0.909,0.486,0.509,0.575,0.559,0.293,0.837,0.747,0.868,0.485,0.363
NCI-H2087,1.22,0.968,0.86,0.969,0.833,1.38,1.48,1.2,1.12,0.939,0.23,0.217,0.291,0.129,0.0965,0.552,0.54,0.281,0.159,0.0852
NCI-H2126,0.737,0.758,0.796,0.8,0.721,0.972,1.06,1.05,1.03,0.931,0.576,0.563,0.484,0.329,0.243,0.862,0.668,0.618,0.258,0.246
NCI-H2170,0.273,0.279,0.269,0.257,0.262,0.944,0.934,0.995,0.724,0.385,0.879,0.537,0.467,0.155,0.126,0.413,0.229,0.195,0.148,0.113
NCI-H2347,1.02,0.926,0.918,0.949,0.888,0.837,0.741,0.805,0.752,0.798,0.312,0.32,0.284,0.265,0.293,0.666,0.605,0.512,0.4,0.376
NCI-H2405,1.31,1.06,1.12,1.15,0.904,0.832,0.757,0.757,0.646,0.454,0.882,0.893,0.621,0.292,0.254,0.748,0.524,0.323,0.239,0.231
NCI-H3122,1.1,1,0.981,0.953,0.995,1.04,1.01,0.946,0.974,0.885,0.25,0.162,0.204,0.136,0.098,0.535,0.235,0.251,0.112,0.0876
PC-3 [JPC-3],0.451,0.458,0.465,0.468,0.446,1.04,0.732,0.836,0.706,0.553,0.625,0.727,0.495,0.538,0.374,1.16,1.05,0.298,0.436,0.452
PC-14,0.312,0.368,0.33,0.354,0.251,0.541,0.316,0.361,0.314,0.202,1.01,0.624,0.259,0.0838,0.0619,0.188,0.129,0.0764,0.0624,0.0504
RERF-LC-KJ,0.854,0.838,0.822,0.841,0.726,1.14,–,1.04,0.995,0.828,0.8,0.66,0.365,0.215,0.203,0.624,0.344,0.221,0.206,0.218
